Here are results for three molecules from patent US6683060B2, “Matrix metalloproteinase and tumor necrosis factor inhibitors” (Advanced Gene Technology Corp., priority 2002, dated 2004).

Molecules are shown by their SMILES. Read-outs that look alike come from different tables or passages of the source.

Experiment [1] deals with ES-2, COLO205, PC-3, A375, and A549 cell lines. Kind of experiment: Proliferation/cytotoxicity assay on cancer cell lines (XTT assay). The experiment is classed as cell-based, human. The settings on record: 72 hours exposure, five cancer cell lines; for cellular viability (XTT assay): serially two-fold diluted from 0.258 mg/ml, data not shown. The source says:
Five cancer-derived cell lines obtained from the American Type Culture Collection (ATCC) were used for the following proliferation/cytotoxicity assay. These cell lines are listed as follow:
(§1) ES-2 is a human ovarian carcinoma. It was maintained in a modified McCoy's 5A medium (Gibco) and supplemented with 10% FBS (fetal bovine serum).
(§2) COLO205 is a human colon cancer-derived cell line. It was maintained in a RPMI 1640 medium (Hyclone), and supplemented with 10% heat-inactivated FBS.
(§3) PC-3 is a human prostate cancer-derived cell line. It was maintained in a Ham's F12 K medium (Gibco) and supplemented with 7% FBS.
(§4) A375 is a human malignant melanoma-derived cell line. It was maintained in a Dulbecco's modified Eagle's medium (DMEM, Hyclone) and supplemented with 10% FBS, 4 mM L-glutamine, 4.5 g/l glucose, and 1.0 mM sodium pyruvate.
(§5) A549 is a human lung cancer-derived cell line. It was maintained in a F12K medium (Gibco) and supplemented with 10% FBS.
To determine the cytotoxicity of Compound 1 or uridine on each cancer cell lines, ES-2, COLO205, PC-3, A375, and A549 cell lines were used. Each cancer cell line at a concentration of 1×10^4 cells/100 μl in each well (Falcon, MicroTest™ 96) was exposed to Compound 1, uridine or 1 μM paclitaxel (taxol, Sigma) for 72 hours in a complete medium. The Compound 1 and uridine were serially two-fold diluted from the concentration of 0.258 mg/ml.
Cellular viability was estimated by the tetrazolium dye reduction assay (XTT assay, Boehringer Mannheim). The amount of XTT reagent (a tetrazolium salt) added to the bottom wells was 100 μl/well and its concentration was 1 mg/ml. The-wells were incubated for 4 hours to allow viable cells to develop color. Absorbance (O.D.) was measured at 450 nm with the reference wavelength at 690 nm.
Background: Tetrazolium dyes change colour on reduction, which living cells bring about.

The subject of experiment [2] is COLO205, PC-3, A375, A549 cell lines. Kind of experiment: Invasive/metastatic potential of cancer cells, Boyden chemotaxis assay chambers, other four cell lines. The experiment is classed as cell-based, human. The following applies: same concentration ranges as ES-2, data not shown. As to the method:
as §2, §3, §4, §5
(§6) In this method, Boyden chemotaxis assay chambers (Costar Transwell plates) were used. Each Boyden chemotaxis assay chamber included a top chamber having a filter as the bottom side of the top chamber and a bottom well surrounding the top chamber. The bottom side of the top chamber used here was an 8 μm-pore polycarbonate filter.
0.35 ml of a medium with complete nutrition supplements as a chemo-attractant was added to each bottom well. Cancer cells (2×10^5 in 50 μl) were then plated on the filters in each of the top chambers. […]
After an 18-hour incubation, the cells in the top chambers were carefully emptied with sterile cotton buds. […] After incubating for 4 hours, absorbance (O.D.) was measured at 450 nm with the reference wavelength at 690 nm. […]

The target of another experiment is T1, MMP-2 (Homo sapiens, UniProt P08253).
T1 construct: The purified enzyme was already an active form with a molecular weight of about 64K; endogenous in cells; host or cells: ES-2 human ovarian carcinoma cells (secreted into serum-free conditioned medium; purified on gelatin-Sepharose 4B)
T1 sequence (P08253 110-660): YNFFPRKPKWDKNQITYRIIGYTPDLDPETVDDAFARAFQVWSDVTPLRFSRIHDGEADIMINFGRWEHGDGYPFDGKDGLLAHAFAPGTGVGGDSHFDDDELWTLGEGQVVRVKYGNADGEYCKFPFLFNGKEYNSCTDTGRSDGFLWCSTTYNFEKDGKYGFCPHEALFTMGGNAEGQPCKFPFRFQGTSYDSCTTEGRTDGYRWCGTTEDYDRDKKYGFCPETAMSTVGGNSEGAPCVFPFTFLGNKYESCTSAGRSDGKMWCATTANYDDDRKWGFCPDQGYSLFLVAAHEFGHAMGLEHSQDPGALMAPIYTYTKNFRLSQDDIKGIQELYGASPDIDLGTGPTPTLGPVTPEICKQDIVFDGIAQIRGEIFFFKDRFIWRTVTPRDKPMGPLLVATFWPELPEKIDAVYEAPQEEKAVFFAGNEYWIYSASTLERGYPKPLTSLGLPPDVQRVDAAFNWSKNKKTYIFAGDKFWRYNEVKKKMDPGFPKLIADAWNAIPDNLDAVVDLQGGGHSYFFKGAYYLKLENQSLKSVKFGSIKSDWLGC
As to the kind of experiment: Inhibition of MMP-2 gelatinase activity on microtiter plates (biotinylated gelatin hydrolysis). The experiment is classed as biochemical. The method, then: The MMP-2 enzyme was obtained from cancer cells and then purified by using gelatin-Sephose 4B (Pharmacia). Serum-free conditioned medium from human ovarian carcinoma cells, ES-2, was concentrated 50-fold and then MMP-2 enzyme was obtained by ultrafiltration using a 30,000 MW (molecular weight) cut-off membrane (YM-30, Amicon). The affinity matrix was equilibrated with an equilibration buffer, which was composed of 50 mM Tris.HCl (pH7.6), 10 mM EDTA and 0.01% Tween 20, containing 0.5 M NaCl. After extensive washing with the equilibration buffer containing 0.5 M NaCl, the bound enzyme was eluted with the equilibration buffer containing 1 M NaCl. […]
The plates were then read at 450 nm (reference length 470 nm) in a microtiter plate reader (Dynex, MRX). The absorbance at 450 nm […] as the concentration of MMP-2 […]. […] Therefore, in the reaction of BG with MMP-2, the absorbance should be a factor 3-5 times lower than an absorbance reading of BG without MMP-2 enzyme (a gelatinase). […]
The effect of Compound 1 on MMP-2 activity was measured by basically the same procedure as described in the section, GELATINASE ASSAY ON MICROTITER PLATES. As Compound 1 was similar to uridine in chemical structure, the effect of a commercial available uridine (Sigma, U-3750, D-Ribose) on MMP-2 activity was also measured for comparison in the experiment. […]

A further experiment relates to ES-2 cells. Kind of experiment: Invasive/metastatic potential of cancer cells, Boyden chemotaxis assay chambers. The experiment is classed as cell-based, human. The settings on record: 18-hour incubation; for IC50: Homo sapiens. As to the method: as §1, §6
0.35 ml of a medium with complete nutrition supplements as a chemo-attractant was added to each bottom well. Cancer cells (2×10^5 in 50 μl) were then plated on the filters in each of the top chambers. Compound 1 or uridine was diluted in the serum-free medium to 0.536 mg/ml and then was added to the top chambers, with the volume of 50 μl/chamber. The control tests were performed with 2 μM paclitaxel (positive control) or with medium only (negative control) in the top chambers.
After an 18-hour incubation, the cells in the top chambers were carefully emptied with sterile cotton buds. 100 μl XTT reagent (1 mg/ml) was added to each of the bottom wells. After incubating for 4 hours, absorbance (O.D.) was measured at 450 nm with the reference wavelength at 690 nm. The ratio of the OD from the bottom wells to that of the OD from the bottom wells of the control tests was taken as the invasive potential. Results presented are from three different independent experiments.

A further experiment has as its target TNFα binding to TNFα-RI (Homo sapiens, UniProt P01375+P19438). As to the kind of experiment: Inhibition of binding of biotinylated TNFα to TNFα-RI on coated microtiter plate. The method, then: 50 μl TNFα-RI at a concentration of 0.25 μg/ml was coated onto each well of a 96-well C-bottom microtiter plate (Nunc) in a 50 mM carbonate buffer (pH 9.5) at 4° C. overnight. The plate was washed 3 times with 200 μl TBST solution composed of 50 mM Tris.HCl (pH 7.35) containing 0.15 M NaCl and 0.05% Tween 20 to remove excess TNFα-RI. 200 μl/well of 0.5% BSA in PBS was added to each plate for blocking of the TNFα-RI. The reaction was carried out at 37° C. for 2 hours followed by washing 4 times with TBST to remove excess BSA.
Compound 1 was serially diluted in TBST solution. Biotinylated TNFα with a concentration of 0.5 μg/ml was mixed with Compound 1 solution in a volume ratio of 1:1. The reaction was allowed to proceed for 30 minutes at 37° C. with shaking at 500 rpm for allowing mixing. The mixtures were then added to the TNFα-RI coated plate, 50 μl for each well. The plate was then incubated at 37° C. for 2 hours with shaking again at 500 rpm, for competitive binding of the biotinylated TNFα and Compound 1.
Followed by washing 4 times with TBST, Extravidin-alkaline phosphatase (Sigma) diluted in TBST (1/5,000) was added to the plate, 50 μl/well. The plate was further incubated at 37° C. for 2 hours and then washed 4 times with TBST. […] After a 30-minute incubation at room temperature, absorbance at the wavelength of 405 nm was measured. […]

Chain of TNFα binding to TNFα-RI (P01375 77-233 limits assumed): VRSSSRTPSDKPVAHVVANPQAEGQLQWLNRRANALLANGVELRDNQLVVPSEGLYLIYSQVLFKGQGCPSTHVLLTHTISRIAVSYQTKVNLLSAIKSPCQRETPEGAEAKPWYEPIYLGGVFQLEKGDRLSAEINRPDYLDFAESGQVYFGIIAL
Chain of TNFα binding to TNFα-RI (P19438 22-211 limits assumed): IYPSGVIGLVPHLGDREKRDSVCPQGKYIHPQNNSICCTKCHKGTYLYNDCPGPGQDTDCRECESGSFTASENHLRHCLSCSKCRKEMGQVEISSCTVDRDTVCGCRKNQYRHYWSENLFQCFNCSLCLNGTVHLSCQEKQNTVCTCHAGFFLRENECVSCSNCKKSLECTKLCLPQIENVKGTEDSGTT

With `CC(=O)O[C@H]1C(=O)[C@@]2(C)[C@H]([C@H](OC(=O)c3ccccc3)[C@]3(O)C[C@H](OC(=O)[C@H](O)[C@@H](NC(=O)c4ccccc4)c4ccccc4)C(C)=C1C3(C)C)[C@]1(OC(C)=O)CO[C@@H]1C[C@@H]2O` [paclitaxel], the “inhibition of cell proliferation (XTT assay)” value in experiment [1] (paclitaxel positive control) was “inhibition of cell proliferation was proportional to the concentration of paclitaxel”.
In general, IC50 refers to the concentration that gives 50% inhibition. As to `O=c1ccn(C2OC(CCO)C(O)C2O)c(=O)[nH]1` (stereo not drawn) [Compound 1, 1-[3,4-dihydroxy-5-(2-hydroxyethyl)tetrahydrofuran-2-yl]pyrimidine-2,4(1H,3H)-dione], in experiment [2], the “effect on invasive potential” value is “not significantly affected”. The concentration for half-maximal inhibition (IC50) is 150 µM at MMP-2 (purified MMP-2 from ES-2 conditioned medium, biotinylated gelatin substrate, read-out: 50% inhibitory dose (IC50) on MMP-2 activity); 23 µg/mL in the experiment with ES-2 cells (XTT readout of bottom wells, read-out: 50% inhibitory dose (IC50) on invasive potential); 90 µM in the experiment with ES-2 cells (printed conversion of 23 μg/ml, read-out: 50% inhibitory dose (IC50) on invasive potential, converted to molar); 50 µM on TNFα binding to TNFα-RI (biotinylated TNFα 0.5 μg/ml mixed 1:1 with compound, TNFα-RI coated plate, read-out: 50% inhibitory dose (IC50) on TNFα binding to TNFα-RI). For the same molecule, the “cellular viability (XTT assay)” value in experiment [1] was “did not reduce cellular viability”. Further, at TNFα binding to TNFα-RI (FIG. 6, Suramin as comparative compound), the “inhibition activity on TNFα binding to TNFα-RI compared with Suramin” value is reported as “smaller than that of Suramin”.
For `O=c1ccn([C@@H]2O[C@H](CO)[C@@H](O)[C@H]2O)c(=O)[nH]1` [uridine, reference compound], the “effect on invasive potential” value (in experiment [2]; with ES-2 cells (data not shown)) was “did not show any effect” in each case. Further, on MMP-2 (at the concentration of 0.82 mM, data not shown), the “inhibitory activity to MMP-2” value is “no inhibitory activity”. Also, the “cellular viability (XTT assay)” value in experiment [1] is on record as “did not reduce cellular viability”.
